Paper PMC5987406, “Antioxidant, anticholinesterase and antifatigue effects of Trichilia catigua (catuaba)” (BMC Complementary and Alternative Medicine, 2018)

How the values were obtained:
mice = experiment: Classical fear conditioning, scopolamine-induced amnesia; format: in vivo; conditions: scopolamine 2 mg/kg i.p., not statistically significant
Experimental: Male albino Swiss mice (30-50 g) and male Wistar rats (300-450 g), 3–4 months old, from our vivarium (Department of Psychobiology, UNIFESP) were housed in rooms with 12 h light-dark circle, controlled temperature (21 ± 2 °C), with filtered tap water and food (Nuvilab, Brazil) ad libitum, except during the experiments. The animals were kept in polypropylene cages (4–5 animals each) with pine shavings as bedding material. […] The animals were euthanized in CO2 chamber or by decapitation (in the case of stress by immobilization test). The protocols followed the International Guiding Principles for Biomedical Research Involving Animals and were approved by UNIFESP ethics committee (Comissão de Ética no Uso de Animais, from Universidade Federal de São Paulo, São Paulo, Brazil) - protocol #0752/07.
On the training day, the animals (except the negative control group) received scopolamine (2 mg/kg, i.p. - Sigma, St. Louis, MO, USA) in 0.9% saline 30 min after the extract treatment and 30 min later were placed individually in the context cage dotted with some visual cues. After 2 min of habituation, three electrical shocks (0.3 mA, 1 s duration and interval of 10s) were delivered to the paws of the animal (adapted from Soeiro et al.). […]

[1] = DPPH assay (radical scavenging); conditions: 95% confidence interval in parenthesis; linear regression, mean of 3–4 assays
Experimental: The test was based on the protocol of Duarte-Almeida et al. [25], with some modifications. An ethanolic solution of 2,2-diphenyl-1-picryl hydrazyl (DPPH) (Sigma, St. Louis, MO, USA) was prepared in order to produce an absorbance between 0.8 and 0.99 at 517 nm. One hundred microliters of each extract diluted in ethanol (Synth, Diadema, Brazil) at initial concentrations of 0.004, 0.01, 0.04, 0.1, 0.4 and 1.0 mg/mL were pipetted in a cuvette and after the addition of 900 μL of DPPH the cuvette was placed in a spectrophotometer (PG Instruments LTD, Leicestershire, United Kingdom) and read during 2 min at 517 nm. Ethanol (vehicle) was used as control and rutin (Acros Organics, New Jersey, USA) as positive control. The percentage of DPPH scavenger (S) was calculated by the formula: SDPPH = [(Ac - As)/Ac] × 100, where Ac = absorbance for the control and As = absorbance for the sample.
The statistical analysis was carried out using the Statistica® and Graph Pad Prism® software. The EC50 for DPPH and IC50 for acetylcholinesterase were calculated by linear regression using the mean of scavenge or inhibition for each concentration of the tested drugs. […] We adopted a p value of 0.05 as statistically significant.

## CN1[C@@H]2C[C@@H](OC(=O)[C@H](CO)c3ccccc3)C[C@H]1[C@@H]1O[C@@H]12 [scopolamine]
mice
  Reduction of freezing time compared with control mice that did not receive scopolamine: 40.9%

## C[C@@H]1O[C@@H](OC[C@H]2O[C@@H](Oc3c(-c4ccc(O)c(O)c4)oc4cc(O)cc(O)c4c3=O)[C@H](O)[C@@H](O)[C@@H]2O)[C@H](O)[C@H](O)[C@H]1O [Rutin, rutin]
[1]
  DPPH scavenging EC50: 44 (9–216) μg/mL
